# Patent publication US7507749B2, “Antitumor agents” (priority 2001, dated 2009)
# Read-outs that look alike come from different tables or passages of the source.
# Tested on: pancreatic ductal adenocarcinoma-03
# Format: in vivo
# Description: BDF1 female mice were obtained from N.C.I., CRL-Ral (D.O.B. was Feb. 26, 2001; D.O.A. was Mar. 10, 2001). The mice weighed an average of 22.5 gm. Mice were implanted SC with pancreatic ductal adenocarcinoma-03 passage 143. (D.O.T. was May 29, 2001; Td was 2.3 days).
# The R-enantiomer of compound 22c was suspended in 3% ethanol, 1% POE-80, 0.25% sodium bicarbonate (by volume) to effect solution. dH2O was then added, and the pH adjusted to 7 with HCl. […] The R-enantiomer of compound 22b was suspended in 3% ethanol, 1% POE-80, 0.5% sodium-bicarbonate (by volume) to effect solution. Then, dH2O was added, and the pH adjusted to 7.5 with HCl. […] Adriamycin (source ADRIA; lot 2033BC) was suspended in dH2O to effect solution, and the pH was 6.0.
# Treatment began six days following implant, at which time the tumors were palpable size (126 mg median). The duration of treatment was prolonged (18 days) in order to obtain a clear separation in efficacy between the compounds.
# [1] = Cg 2, IV 80 mg/kg/inj days 6,9,12,15,18,21,24, total 560 mg/kg
# [2] = Cg 3, IV 50 mg/kg/inj days 6,9,12,15,18,21,24, total 350 mg/kg
# [3] = Cg 4, IV 31 mg/kg/inj days 6,9,12,15,18,21,24, total 217 mg/kg
# [4] = Cg 5, total 592.8 mg/kg, text: SC 31.2 mg/kg/inj qd 6-24 (table prints days 6,9..24 IV)
# [5] = Cg 12 in table (Cage 6 in text), total 370.5 mg/kg, text: SC 19.5 mg/kg/inj qd 6-24 (table prints IV)
smiles,measurement,setting,value
"C[C@@H](Oc1ccc(Oc2ccc3ccc(Cl)cc3n2)cc1)C(=O)O [Compound R-22b, (R) 2-[4-(7-chloroquinolin-2-yloxy)phenoxy]propanoic acid]",Behavior post injection,"Cage 2, IV 80 mg/kg/inj, lasted only a few minutes",agitated post IV injection
same,Neuromuscular toxicity,"Cage 2, IV 80 mg/kg/inj, total 560 mg/kg",no neuromuscular toxicity
same,Behavior post injection,"Cage 5, SC 31.2 mg/kg/inj qd 6-24",not agitated post SC injection
same,Behavior post injection,"Cage 6 in text, SC 19.5 mg/kg/inj qd 6-24",not agitated post SC injection
same,% Body Wt change between day 6 and day 24,[1],+3.7%
same,% T/C mass,[1],14.1%
same,Activity Rating,[1],+++ (2.0-2.8)
same,CR's,[1],0/7
same,Drug Deaths,[1],0/7
same,Growth Delay,[1],17.5 days
same,Log Kill,[1],2.3
same,Median Tumor Mass on Day 24 (Range),[1],320 mg
same,"Median time for tumors to 1,000 mg (range)",[1],34 days
same,PR's,[1],2/7
same,Tumor Free day-157,[1],0/7
same,% Body Wt change between day 6 and day 24,[2],+8.8%
same,% T/C mass,[2],29.1%
same,Activity Rating,[2],++ (1.3-1.9)
same,CR's,[2],1/6
same,Drug Deaths,[2],0/6
same,Growth Delay,[2],11.5 days
same,Log Kill,[2],1.5
same,Median Tumor Mass on Day 24 (Range),[2],658 mg
same,"Median time for tumors to 1,000 mg (range)",[2],28 days
same,PR's,[2],1/6
same,Tumor Free day-157,[2],0/6
same,% Body Wt change between day 6 and day 24,[3],+10.4%
same,% T/C mass,[3],76.2%
same,Activity Rating,[3],− (<0.7)
same,CR's,[3],0/6
same,Drug Deaths,[3],0/6
same,Growth Delay,[3],3.5 days
same,Log Kill,[3],0.5
same,Median Tumor Mass on Day 24 (Range),[3],1722 mg
same,"Median time for tumors to 1,000 mg (range)",[3],20 days
same,PR's,[3],0/6
same,Tumor Free day-157,[3],0/6
same,% Body Wt change between day 6 and day 24,[4],+3.5%
same,% T/C mass,[4],48.9%
same,Activity Rating,[4],+ (0.7-1.2)
same,CR's,[4],1/5
same,Drug Deaths,[4],0/5
same,Growth Delay,[4],6.5 days
same,Log Kill,[4],0.9
same,Median Tumor Mass on Day 24 (Range),[4],1105 mg
same,"Median time for tumors to 1,000 mg (range)",[4],23 days
same,PR's,[4],1/5
same,Tumor Free day-157,[4],1/5
same,% Body Wt change between day 6 and day 24,[5],+10.3%
same,% T/C mass,[5],82.7%
same,Activity Rating,[5],− (<0.7)
same,CR's,[5],0/5
same,Drug Deaths,[5],0/5
same,Growth Delay,[5],3.0 days
same,Log Kill,[5],0.4
same,Median Tumor Mass on Day 24 (Range),[5],1868 mg
same,"Median time for tumors to 1,000 mg (range)",[5],19.5 days
same,PR's,[5],0/5
same,Tumor Free day-157,[5],0/5
